Results on 13 molecules are retold here after PubChem BioAssay (NCI).

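Compound exposure: 48 hours, 5 concentrations, 96-well plates. TGI is the concentration that stops growth completely.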 A value given as a limit tells only on which side of the number the result lay.

Test systems include 786-0 renal; HT29 colon; KM12 colon; LOX IMVI melanoma; MDA-MB-231 breast; NCI/ADR-RES ovarian; SF-295 CNS; SF-539 CNS; SNB-19 CNS; UO-31 renal.
Experiment in all cases: NCI anticancer screen, dose series, 48 h

Regarding `CC(C)(C)c1cc(C2COC(c3cc(C(C)(C)C)c(O)c(C(C)(C)C)c3)CO2)cc(C(C)(C)C)c1O` (configuration not stated), the TGI in the assay with 786-0 renal, in the assay with HT29 colon, in the assay with KM12 colon, in the assay with LOX IMVI melanoma, with MDA-MB-231 breast and in the assay on NCI/ADR-RES ovarian was over 100 µM throughout. Further, the TGI with SF-295 CNS, with SF-539 CNS, in the assay with SNB-19 CNS and with UO-31 renal was over 100 µM each time.

`CC[C@@H](/C=C\CCC(=O)C[C@H](O)CCC=C(C)C)O[Si](C(C)C)(C(C)C)C(C)C`: the TGI with 786-0 renal, in the assay on HT29 colon, in the assay on KM12 colon, in the assay with LOX IMVI melanoma, in the assay with MDA-MB-231 breast and in the assay on NCI/ADR-RES ovarian was over 100 µM each time. Moreover, the TGI in the assay with SF-295 CNS, with SF-539 CNS, with SNB-19 CNS and with UO-31 renal was over 100 µM throughout.

On to `CC(C)[C@@H]1ON1C(C)c1ccccc1` (some centres not stated), for which the TGI in the assay on 786-0 renal, with HT29 colon, with KM12 colon, in the assay with LOX IMVI melanoma, with MDA-MB-231 breast and in the assay on NCI/ADR-RES ovarian was over 100 µM in each case. The TGI with SF-295 CNS, with SF-539 CNS, in the assay on SNB-19 CNS and in the assay on UO-31 renal was over 100 µM in each case.

Regarding `CCOc1cc(NC(C)=O)ccc1C(=O)NN1C(=O)C(Cl)C1c1ccco1` (configuration not stated), the TGI with 786-0 renal is 30.8 µM; with HT29 colon, 38.8 µM; in the assay on KM12 colon, 33.6 µM; with LOX IMVI melanoma, 13.1 µM; in the assay with MDA-MB-231 breast it was 31.1 µM; in the assay on NCI/ADR-RES ovarian it was over 100 µM. The TGI in the assay on SF-295 CNS is 30.5 µM; in the assay with SF-539 CNS it was 38 µM; in the assay with SNB-19 CNS, 32.1 µM; with UO-31 renal, 11.5 µM.

As for `C/C(=C/CC[C@]1(CO)CC[C@]2(CO)[C@H](CC[C@@H]3[C@@]4(C)CC[C@H](OC5OCC(O)C(O)C5OC5OC(CO)C(O)C(O)C5O)C(C)(C)[C@@H]4CC[C@]32C)[C@H]1O)CO` (some centres not stated), the TGI with 786-0 renal, in the assay on HT29 colon, in the assay with KM12 colon, in the assay with LOX IMVI melanoma, with MDA-MB-231 breast and in the assay on NCI/ADR-RES ovarian was over 100 µM throughout. The TGI with SF-295 CNS, in the assay on SF-539 CNS, in the assay with SNB-19 CNS and in the assay with UO-31 renal was over 100 µM each time.

Take `CCN(CC)CCNCc1cc(Cl)cc2c1OCOC2`: the TGI with HT29 colon, with KM12 colon, with LOX IMVI melanoma, in the assay on MDA-MB-231 breast, with NCI/ADR-RES ovarian and in the assay with SF-295 CNS was over 10 µM in each case. In addition, the TGI in the assay with SF-539 CNS, in the assay with SNB-19 CNS and with UO-31 renal was over 10 µM throughout.

As to `CNc1ccc(N)cc1C(=O)N1CCC[C@H]1CO`, the TGI with 786-0 renal, with HT29 colon, in the assay with KM12 colon, in the assay on LOX IMVI melanoma, in the assay on MDA-MB-231 breast and in the assay with NCI/ADR-RES ovarian was over 100 µM each time. The TGI in the assay on SF-295 CNS, in the assay on SF-539 CNS, in the assay on SNB-19 CNS and in the assay with UO-31 renal was over 100 µM in each case.

For `O[C@H]1[C@H](O)[C@@H](O)[C@@]2(O)C[C@@H](O)[C@@H]1N2`, the TGI with 786-0 renal, in the assay with HT29 colon, with KM12 colon, in the assay on LOX IMVI melanoma, in the assay on MDA-MB-231 breast and with NCI/ADR-RES ovarian was over 100 µM in each case. In addition, the TGI in the assay with SF-295 CNS, in the assay with SF-539 CNS, in the assay with SNB-19 CNS and with UO-31 renal was over 100 µM throughout.

`C=CCOC(=O)C1C2OC3(C(C(=O)OC)=C2C(=O)OC)c2ccccc2CCC13` (configuration not stated): the TGI in the assay with 786-0 renal, in the assay with HT29 colon, in the assay with KM12 colon, with LOX IMVI melanoma, with MDA-MB-231 breast and with NCI/ADR-RES ovarian was over 10 µM throughout. The TGI with SF-295 CNS, with SF-539 CNS, in the assay with SNB-19 CNS and with UO-31 renal was over 10 µM throughout.

As for `Cc1ccc2c(=O)cc(-c3ccc(-c4ccccc4)s3)[nH]c2n1`, the TGI in the assay with 786-0 renal, in the assay on HT29 colon, in the assay with KM12 colon, with LOX IMVI melanoma, in the assay with MDA-MB-231 breast and in the assay with NCI/ADR-RES ovarian was over 100 µM in each case. The TGI with SF-295 CNS was 99.5 µM; in the assay on SF-539 CNS it was 36.6 µM; in the assay with SNB-19 CNS, over 100 µM; in the assay on UO-31 renal, 0.219 µM.

Consider `CCNC1=C(NC(=O)CC)C(=O)c2ccccc2C1=O`, for which the TGI with 786-0 renal, in the assay on HT29 colon, in the assay with KM12 colon, in the assay on MDA-MB-231 breast, with NCI/ADR-RES ovarian and with SF-295 CNS was over 100 µM in each case. Also, the TGI with SF-539 CNS and with SNB-19 CNS was over 100 µM throughout.

In the case of `COc1cc(C(c2ccc3c(c2)OCO3)N2C(=O)CCC2C(=O)O)cc(OC)c1OC` (configuration not stated), the TGI in the assay with 786-0 renal, in the assay on HT29 colon, in the assay on KM12 colon, in the assay with LOX IMVI melanoma, with MDA-MB-231 breast and with NCI/ADR-RES ovarian was over 100 µM throughout. For the same molecule, the TGI with SF-295 CNS, in the assay on SF-539 CNS, in the assay on SNB-19 CNS and in the assay on UO-31 renal was over 100 µM in each case.

Take `COC12c3ccccc3-c3ccccc3C1[C@H]1C(=O)OC(=O)[C@H]12` (some centres not stated): the TGI with 786-0 renal, in the assay on HT29 colon, with KM12 colon, in the assay with LOX IMVI melanoma, in the assay with MDA-MB-231 breast and in the assay with NCI/ADR-RES ovarian was over 10 µM in each case. The TGI with SF-295 CNS, in the assay with SF-539 CNS, in the assay with SNB-19 CNS and with UO-31 renal was over 10 µM in each case.
